The test system of test [1] is gastric (AGS) cancer cell line. Description: MTS proliferation assay, AGS. The class given is cell-based, human. Conditions: for viability (anti-proliferative activity), MTS: as a function of time, triplicate. The source says: FIGS. 10A-10F compare anti-proliferative activity of 10 nmoles of compounds −0045 and −0052 against gastric (AGS) (FIGS. 10B and 10C, respectively) and pancreatic (ASPC1) (FIGS. 10E and 10F, respectively) cancer cell lines, as measured as a function of time and compared to palbociclib (−000) (FIGS. 10A-AGS; and 10D-ASPC1) using standard MTS assays in the indicated cell lines; results were in triplicate with reported experimental uncertainty.
FIGS. 11A-11F compare anti-proliferative activity of 5 nmoles of compounds −0045 and −0052 against gastric (AGS) (FIGS. 11B and 11C, respectively) and pancreatic (ASPC1) (FIGS. 11E and 11F, respectively) cancer cell lines, as measured as a function of time and compared to palbociclib (−000) (FIGS. 11A-AGS; and 11D-ASPC1), using standard MTS assays in the indicated cell lines; results were in triplicate with reported experimental uncertainty.
The anti-proliferative activity of compounds −0045 and −0052 in two cell lines characterized by high levels of miR-21 (gastric adenocarcinoma (AGS) and pancreatic (ASPC1) cancer origin) was determined. These experiments were conducted in a double-blind format, without knowledge of the identity or binding activity of the compounds, to avoid any unintentional bias. […] Viability in the presence of both palbociclib and compound −0052 is decreased after approximately 72-96 hrs to a statistically significant extent (data points marked with asterisks are statistically significant).
Cell line maintenance. Using the Cancer Cell Line Encyclopedia (CCLE), in-house cancer cell lines were screened to identify cancer and tissue types with varying levels of miR-21 expression. Experiments were performed using the human-derived cell lines AGS (gastric cancer) and AsPC-1 (pancreatic cancer). Cell lines were obtained from the American Type Culture Collection and maintained per instructions from the supplier. AGS were cultured in F12K medium supplemented with 10% FBS. AsPC-1 were cultured in RPMI, with 10% FBS added. All cells were kept at 37° C. in a humidified atmosphere of 5% CO2 and underwent regular mycoplasma testing. All experiments were conducted when cells were 70-80% confluent.
Proliferation assay. The impact of the compound on cellular proliferation was assessed, with 5,000 cells in each cell line seeded in replicates of 6 in a 96 well plate and treated with DMSO or with compounds. After 48 hours, cells were treated with the MTS reagent and optical density was read to generate dose-response curves.

Test [2] relates to miR-16, miR-28, miR-182 in gastric (AGS) cells. The experiment in a line: qRT-PCR of miR-16, miR-28, miR-182 in AGS cells. Format: cell-based, human. Conditions: 24-72 hours post incubation, vs DMSO. The protocol: Levels of each microRNA were measured at different times post incubation (24-72 hours) by standard qRT-PCR, normalized to internal controls (U6 or U8 snRNA), in both gastric (AGC) and pancreatic (ASPC1) cell lines. Levels of the microRNA are generally the same, within experimental uncertainty, in the absence (DMSO) or presence of compound −0052 (30).
FIGS. 15A-15F show the levels of mature miR-16, miR-28, and miR-182 are not consistently affected by the compounds in both gastric (AGS) and pancreatic (ASPC1) cell lines, over multiple time scales (24-72 hours), relative to control where DMSO was added, but no compound.
Cell line maintenance. Using the Cancer Cell Line Encyclopedia (CCLE), in-house cancer cell lines were screened to identify cancer and tissue types with varying levels of miR-21 expression. Experiments were performed using the human-derived cell lines AGS (gastric cancer) and AsPC-1 (pancreatic cancer). […]
Quantitative real time PCR analysis. […] RNA concentration was assessed with the NanoDrop ND-1000 spectrophotometer (ThermoFisher Scientific). […] Expression of miR-21 was assessed utilizing the TaqMan microRNA assay (Applied Biosystems). […] All experiments were performed in triplicate, with all samples normalized to the internal controls and relative expression levels calculated using the 2^ΔΔCt method.

Consider `O=c1[nH]c(Nc2ccc(N3CCNCC3)cn2)nc2cnccc12` [Compound 30], for which the “viability (anti-proliferative activity), MTS” value in test [1] (5 nmoles of compound) and in test [1] (10 nmoles of compound) was “reduce the viability of both cell lines to a statistically significant extent” throughout. Moreover, the “cell killing activity, MTS over 6 days” value in test [1] (both concentrations tested (10 and 5 nmols), double-blind) was “Cell killing activity”. In test [2], the “cellular levels of miR-16, miR-28, miR-182” value is reported as “does not affect cellular levels”.

Regarding `O=c1[nH]c(Nc2ccc(N3CCNCC3)cn2)nc2cccnc12` [Compound 25], the “viability (anti-proliferative activity), MTS” value in test [1] (5 nmoles of compound) and in test [1] (10 nmoles of compound) was “does not” throughout.
